Measured values taken from ChEMBL document CHEMBL4145521, “Regioselective synthesis of 3,4-diaryl-5-unsubstituted isoxazoles, analogues of natural cytostatic combretastatin A4” (Eur J Med Chem, 2018).

Columns and labels:
Format in all cases: functional
PC-3 [1] = test: Cytotoxicity against human PC3 cells assessed as cell growth at 0.01 uM incubated for 48 hrs by sulforhodamine B assay relative to control; conditions: PC-3, 48 h, read-out: Activity
NCI-H226 = test: Cytotoxicity against human NCI-H226 cells assessed as cell growth at 0.1 uM incubated for 48 hrs by sulforhodamine B assay relative to control; conditions: NCI-H226, 48 h, read-out: Activity
UACC-62 [2] = test: Cytotoxicity against human UACC62 cells assessed as cell growth at 0.1 uM incubated for 48 hrs by sulforhodamine B assay relative to control; conditions: UACC-62, 48 h, read-out: Activity
MDA-MB-231 = test: Cytotoxicity against human MDA-MB-231 cells incubated for 48 hrs by sulforhodamine B assay; conditions: MDA-MB-231, 48 h
CAKI-1 = test: Cytotoxicity against human Caki1 cells assessed as cell growth at 100 uM incubated for 48 hrs by sulforhodamine B assay relative to control; conditions: CAKI-1, 48 h, read-out: Activity
UACC-62 [3] = test: Cytotoxicity against human UACC62 cells incubated for 48 hrs by sulforhodamine B assay; conditions: UACC-62, 48 h
NCI/ADR-RES [4] = test: Cytotoxicity against human NCI/ADR-RES cells assessed as cell growth at 0.1 uM incubated for 48 hrs by sulforhodamine B assay relative to control; conditions: read-out: Activity
OVCAR-5 = test: Cytotoxicity against human OVCAR5 cells assessed as cell growth at 0.1 uM incubated for 48 hrs by sulforhodamine B assay relative to control; conditions: OVCAR-5, 48 h, read-out: Activity
NCI-H23 = test: Cytotoxicity against human NCI-H23 cells assessed as cell growth at 0.01 uM incubated for 48 hrs by sulforhodamine B assay relative to control; conditions: NCI-H23, 48 h, read-out: Activity
HCC 2998 = test: Cytotoxicity against human HCC2998 cells assessed as cell growth at 10 uM incubated for 48 hrs by sulforhodamine B assay relative to control; conditions: HCC 2998, 48 h, read-out: Activity
SNB-75 [5] = test: Cytotoxicity against human SNB75 cells assessed as cell growth at 1 uM incubated for 48 hrs by sulforhodamine B assay relative to control; conditions: SNB-75, 48 h, read-out: Activity
COLO 205 = test: Cytotoxicity against human COLO205 cells assessed as cell growth at 0.01 uM incubated for 48 hrs by sulforhodamine B assay relative to control; conditions: COLO 205, 48 h, read-out: Activity
OVCAR-8 = test: Cytotoxicity against human OVCAR8 cells assessed as cell growth at 100 uM incubated for 48 hrs by sulforhodamine B assay relative to control; conditions: OVCAR-8, 48 h, read-out: Activity
HOP-62 [6] = test: Cytotoxicity against human HOP62 cells assessed as cell growth at 100 uM incubated for 48 hrs by sulforhodamine B assay relative to control; conditions: HOP-62, 48 h, read-out: Activity
SF-295 = test: Cytotoxicity against human SF295 cells incubated for 48 hrs by sulforhodamine B assay; conditions: SF-295, 48 h
786-0 = test: Cytotoxicity against human 786-0 cells assessed as cell growth at 100 uM incubated for 48 hrs by sulforhodamine B assay relative to control; conditions: 786-0, 48 h, read-out: Activity
NCI/ADR-RES [7] = test: Cytotoxicity against human NCI/ADR-RES cells assessed as cell growth at 100 uM incubated for 48 hrs by sulforhodamine B assay relative to control; conditions: read-out: Activity
SK-MEL-2 = test: Cytotoxicity against human SK-MEL-2 cells assessed as cell growth at 10 uM incubated for 48 hrs by sulforhodamine B assay relative to control; conditions: SK-MEL-2, 48 h, read-out: Activity
NCI-H460 = test: Cytotoxicity against human NCI-H460 cells assessed as cell growth at 1 uM incubated for 48 hrs by sulforhodamine B assay relative to control; conditions: NCI-H460, 48 h, read-out: Activity
NCI-H322M = test: Cytotoxicity against human NCI-H322M cells assessed as cell growth at 0.01 uM incubated for 48 hrs by sulforhodamine B assay relative to control; conditions: read-out: Activity
NCI/ADR-RES [8] = test: Cytotoxicity against human NCI/ADR-RES cells incubated for 48 hrs by sulforhodamine B assay
UO-31 = test: Cytotoxicity against human UO31 cells assessed as cell growth at 0.1 uM incubated for 48 hrs by sulforhodamine B assay relative to control; conditions: UO-31, 48 h, read-out: Activity
HOP-62 [9] = test: Cytotoxicity against human HOP62 cells assessed as cell growth at 0.1 uM incubated for 48 hrs by sulforhodamine B assay relative to control; conditions: HOP-62, 48 h, read-out: Activity
HCT-116 = test: Cytotoxicity against human HCT116 cells incubated for 48 hrs by sulforhodamine B assay; conditions: HCT-116, 48 h
EKVX = test: Cytotoxicity against human EKVX cells incubated for 48 hrs by sulforhodamine B assay
PC-3 [10] = test: Cytotoxicity against human PC3 cells assessed as cell growth at 0.1 uM incubated for 48 hrs by sulforhodamine B assay relative to control; conditions: PC-3, 48 h, read-out: Activity
OVCAR-3 = test: Cytotoxicity against human OVCAR3 cells assessed as cell growth at 0.1 uM incubated for 48 hrs by sulforhodamine B assay relative to control; conditions: OVCAR-3, 48 h, read-out: Activity
SF-539 [11] = test: Cytotoxicity against human SF539 cells assessed as cell growth at 0.01 uM incubated for 48 hrs by sulforhodamine B assay relative to control; conditions: SF-539, 48 h, read-out: Activity
SF-539 [12] = test: Cytotoxicity against human SF539 cells assessed as cell growth at 10 uM incubated for 48 hrs by sulforhodamine B assay relative to control; conditions: SF-539, 48 h, read-out: Activity
SNB-75 [13] = test: Cytotoxicity against human SNB75 cells assessed as cell growth at 0.1 uM incubated for 48 hrs by sulforhodamine B assay relative to control; conditions: SNB-75, 48 h, read-out: Activity
[14] = read-out: LC50 (the source's name)
[15] = read-out: pLC50 (the source's name) (converted)

COc1ccc(-c2nocc2-c2cc(OC)c(OC)c(OC)c2)cc1
growth at 0.01 µM (PC-3 [1]): 99%
growth at 0.1 µM (NCI-H226): 90%
growth at 0.1 µM (UACC-62 [2]): 36%
GI50 (MDA-MB-231; read-out: GI50): 0.45 µM
CC50 (MDA-MB-231; [14]): > 100 µM
TGI (MDA-MB-231; read-out: TGI): 34.2 µM
GI50 (MDA-MB-231; read-out: pGI50 (converted)): 0.447 µM
CC50 (MDA-MB-231; [15]): > 100 µM
TGI (MDA-MB-231; read-out: pTGI (converted)): 33.9 µM
growth at 100 µM (CAKI-1): 14%
GI50 (UACC-62 [3]; read-out: GI50): 0.0557 µM
LC50 (concentration killing 50% of cells) (UACC-62 [3]; read-out: LC50): > 100 µM
TGI (UACC-62 [3]; read-out: TGI): 12.9 µM
GI50 (UACC-62 [3]; read-out: pGI50 (converted)): 0.0562 µM
LC50 (concentration killing 50% of cells) (UACC-62 [3]; read-out: pLC50 (converted)): > 100 µM
TGI (UACC-62 [3]; read-out: pTGI (converted)): 12.9 µM
growth at 0.1 µM (NCI/ADR-RES [4]): 34%
growth at 0.1 µM (OVCAR-5): 86%
growth at 0.01 µM (NCI-H23): 94%
growth at 10 µM (HCC 2998): 25%
growth at 1 µM (SNB-75 [5]): 4%
growth at 0.01 µM (COLO 205): 91%
growth at 100 µM (OVCAR-8): 4%
growth at 100 µM (HOP-62 [6]): 10%
GI50 (SF-295; read-out: GI50): 0.0505 µM
CC50 (SF-295; [14]): > 100 µM
TGI (SF-295; read-out: TGI): 13.1 µM
GI50 (SF-295; read-out: pGI50 (converted)): 0.0501 µM
CC50 (SF-295; [15]): > 100 µM
TGI (SF-295; read-out: pTGI (converted)): 13.2 µM
growth at 100 µM (786-0): -17%
growth at 100 µM (NCI/ADR-RES [7]): -7%
growth at 10 µM (SK-MEL-2): 43%
growth at 1 µM (NCI-H460): 11%
growth at 0.01 µM (NCI-H322M): 95%
GI50 (NCI/ADR-RES [8]; read-out: GI50): 0.0538 µM
LC50 (NCI/ADR-RES [8]; read-out: LC50): > 100 µM
TGI (NCI/ADR-RES [8]; read-out: TGI): 37.2 µM
GI50 (NCI/ADR-RES [8]; read-out: pGI50 (converted)): 0.0537 µM
LC50 (NCI/ADR-RES [8]; read-out: pLC50 (converted)): > 100 µM
TGI (NCI/ADR-RES [8]; read-out: pTGI (converted)): 37.2 µM
growth at 0.1 µM (UO-31): 70%
growth at 0.1 µM (HOP-62 [9]): 58%
GI50 (HCT-116; read-out: GI50): 0.039 µM
LC50 (concentration killing 50% of cells) (HCT-116; read-out: LC50): > 100 µM
TGI (HCT-116; read-out: TGI): 14.7 µM
GI50 (HCT-116; read-out: pGI50 (converted)): 0.0389 µM
LC50 (concentration killing 50% of cells) (HCT-116; read-out: pLC50 (converted)): > 100 µM
TGI (HCT-116; read-out: pTGI (converted)): 14.8 µM
GI50 (EKVX; read-out: GI50): 0.096 µM
CC50 (EKVX; [14]): > 100 µM
TGI (EKVX; read-out: TGI): > 100 µM
GI50 (EKVX; read-out: pGI50 (converted)): 0.0955 µM
CC50 (EKVX; [15]): > 100 µM
TGI (EKVX; read-out: pTGI): > 100 µM
growth at 0.1 µM (PC-3 [10]): 40%
growth at 0.1 µM (OVCAR-3): 15%
growth at 0.01 µM (SF-539 [11]): 86%
growth at 10 µM (SF-539 [12]): 2%
growth at 0.1 µM (SNB-75 [13]): 47%
